“Also recorded” adds a separate entry of the source.
Experiments:
[1] = target: T1, recombinant mouse acetylcholinesterase (rMAChE) (Mus musculus, UniProt P21836); test: Colorimetric; assay type: biochemical; conditions: tested at 50 µM
T1 sequence (P21836 with tags, fused parts or gaps limits assumed): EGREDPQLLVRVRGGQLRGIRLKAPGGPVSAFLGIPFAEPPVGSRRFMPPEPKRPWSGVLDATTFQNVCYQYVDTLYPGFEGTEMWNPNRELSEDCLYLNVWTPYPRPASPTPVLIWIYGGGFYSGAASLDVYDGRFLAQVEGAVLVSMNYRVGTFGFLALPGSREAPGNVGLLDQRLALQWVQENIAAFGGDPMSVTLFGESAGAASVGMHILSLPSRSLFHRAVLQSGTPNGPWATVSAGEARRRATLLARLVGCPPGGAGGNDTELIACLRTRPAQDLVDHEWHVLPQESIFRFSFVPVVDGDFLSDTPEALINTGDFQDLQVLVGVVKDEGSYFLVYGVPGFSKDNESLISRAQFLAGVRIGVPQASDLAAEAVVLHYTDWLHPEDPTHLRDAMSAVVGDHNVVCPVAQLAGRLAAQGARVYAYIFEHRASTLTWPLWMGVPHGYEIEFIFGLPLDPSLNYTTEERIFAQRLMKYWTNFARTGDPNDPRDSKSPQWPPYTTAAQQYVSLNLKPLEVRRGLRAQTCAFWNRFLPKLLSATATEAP

[2] = target: electric eel acetylcholinesterase (EEAChE) (Electrophorus electricus, UniProt O42275); test: Colorimetric; assay type: biochemical; conditions: tested at 50 µM
Chain of electric eel acetylcholinesterase (EEAChE) (O42275 24-633): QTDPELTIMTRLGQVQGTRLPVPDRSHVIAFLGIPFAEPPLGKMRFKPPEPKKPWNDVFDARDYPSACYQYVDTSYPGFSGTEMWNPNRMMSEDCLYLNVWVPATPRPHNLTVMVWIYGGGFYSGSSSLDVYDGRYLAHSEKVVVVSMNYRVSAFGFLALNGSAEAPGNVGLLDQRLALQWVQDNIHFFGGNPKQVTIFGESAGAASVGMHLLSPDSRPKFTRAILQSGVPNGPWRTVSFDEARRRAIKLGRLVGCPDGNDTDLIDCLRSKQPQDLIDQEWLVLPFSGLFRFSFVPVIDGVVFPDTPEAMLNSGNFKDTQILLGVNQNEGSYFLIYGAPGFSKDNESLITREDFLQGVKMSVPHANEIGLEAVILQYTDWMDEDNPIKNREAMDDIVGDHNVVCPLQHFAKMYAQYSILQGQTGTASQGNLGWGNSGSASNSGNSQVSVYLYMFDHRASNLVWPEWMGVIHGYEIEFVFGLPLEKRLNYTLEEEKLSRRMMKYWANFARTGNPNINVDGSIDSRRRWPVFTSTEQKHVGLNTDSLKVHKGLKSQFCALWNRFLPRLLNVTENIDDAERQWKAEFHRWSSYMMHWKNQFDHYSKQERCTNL

EEAChE [3] = target: T2, EEAChE (Electrophorus electricus, UniProt O42275); conditions: read-out: IC50 against EEAChE; competitive inhibition; cited from earlier work
T2 sequence (O42275 24-633): as above

EEAChE [4] = target: T2, EEAChE; conditions: Lineweaver–Burk plot

Compound: C#CCNS(=O)(=O)c1cccc2c(N(C)C)cccc12 [Compound 1, 5-(Dimethylamino)-N-(-2-propynyl)-1-naphthalenesulfonamide]
- Inhibition of rMAChE (in words) ([1]; listed as dansyl): not inhibitors; also recorded: inactive
- Inhibition of EEAChE (in words) ([2]; listed as dansyl): not inhibitors; also recorded: inactive

Compound: c1cc2ccc3cccc4ccc(c1)c2c34 [pyrene]
- IC50 (EEAChE [3]): 5.22 µM

Compound: C#CCNC(=O)c1cc2ccc(OC)cc2oc1=O [Compound 5, 2H-1-Benzopyran-7-methoxy-2-oxo-3-N-propynylcarboxylamide]
- Inhibition of rMAChE (in words) ([1]; listed as methoxycoumarin): not inhibitors; also recorded: inactive
- Inhibition of EEAChE (in words) ([2]; listed as methoxycoumarin): not inhibitors; also recorded: inactive

Compound: C#CCNS(=O)(=O)c1ccc(N=Nc2ccc(N(C)C)cc2)cc1 [Compound 3, 4-(4-Dimethylamino-phenylazo)-N-prop-2-ynyl benzenosulfonamide]
- Inhibition of rMAChE (in words) ([1]; listed as dabsyl): not inhibitors; also recorded: inactive
- Inhibition of EEAChE (in words) ([2]; listed as dabsyl): not inhibitors; also recorded: inactive

Compound: C#CCNC(=O)c1cc2ccc(N(CC)CC)cc2oc1=O [Compound 4, 2H-1-Benzopyran-7-N-diethyl-2-oxo-3-propynylcarboxylamide]
- Inhibition of rMAChE (in words) [1]: inhibited
- Inhibition of rMAChE (in words) ([1]; listed as diethylaminocoumarin): some inhibitory ability
- Inhibition of EEAChE (in words) [2]: not an inhibitor

Compound: 9-[2(or 4)-[[[-[-N-Propynylsulfonamide]-4(or 2)-sulfophenyl]-2,3,6,7,12,13,16,17–octahydro-1H, 5H, 11H, 15H-xantheno[2,3,4-ij:5,6,7i′j′]-diquinolizium-18-inner salt [Compound 7]
- Inhibition of rMAChE (in words) [1]: reversibly inactivate
- Inhibition of rMAChE (in words) ([1]; listed as Texas Red): inhibited
- Inhibition of EEAChE (in words) [2]: reversibly inactivate
- Inhibition of EEAChE (in words) ([2]; listed as Texas Red): inhibited

Compound: Xanthylium, 9-[-2-sulfophenyl]-3,6-bis(diethylamino)-4-sulfonamide [Compound 6]
- Inhibition of rMAChE (in words) [1]: reversibly inactivate
- Inhibition of rMAChE (in words) ([1]; listed as Lissamine): inhibited
- Type of inhibition (EEAChE [4]): mixed-type competitive and noncompetitive inhibition
- Inhibition of EEAChE (in words) [2]: reversibly inactivate
- Inhibition of EEAChE (in words) ([2]; listed as Lissamine): inhibited

Compound: C#CCNS(=O)(=O)c1ccc2ccc3cccc4ccc1c2c34 [Compound 2, 1-N-(-2-Propynyl)-pyrenesulfonamide]
- Inhibition of rMAChE (in words) [1]: inactive
- Inhibition of EEAChE (in words) [2]: inactive
